Results reported in publication PMC3866251, “The Sodium/Proline Transporter PutP of Helicobacter pylori” (PLoS ONE, 2013).

Molecular target: T1, HpPutP (Helicobacter pylori, UniProt B6JPE8)
T1 construct: gene putP; full-length, C-terminal 6His tag (FLAG-6His for Western blots), expressed in E. coli WG170 (PutP-A-), intact cells
Experiment: inhibition of […]-L-proline uptake into E. coli WG170 expressing HpPutP, Dixon plot
Format: cell-based

T1 sequence (B6JPE8 1-496): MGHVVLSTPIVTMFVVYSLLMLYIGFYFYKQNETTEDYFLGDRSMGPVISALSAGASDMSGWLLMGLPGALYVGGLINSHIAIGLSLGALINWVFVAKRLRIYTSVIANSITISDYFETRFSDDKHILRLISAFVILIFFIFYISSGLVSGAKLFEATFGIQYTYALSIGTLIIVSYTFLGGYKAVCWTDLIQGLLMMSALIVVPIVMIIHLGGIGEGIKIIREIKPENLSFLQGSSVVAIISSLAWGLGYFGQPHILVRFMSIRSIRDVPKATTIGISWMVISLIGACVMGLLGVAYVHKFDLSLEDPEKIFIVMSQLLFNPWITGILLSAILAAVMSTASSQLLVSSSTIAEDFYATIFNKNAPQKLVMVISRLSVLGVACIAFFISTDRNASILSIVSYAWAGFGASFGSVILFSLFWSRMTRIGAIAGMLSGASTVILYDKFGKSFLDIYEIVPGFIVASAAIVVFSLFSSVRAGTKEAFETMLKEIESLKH

| SMILES | Ki [µM] |
| --- | --- |
| O=C(O)C1C=CCN1 (racemic) [DHP, 3,4-dehydro-D,L-proline] | 5.7 ± 0.9 |
| O=C(O)[C@@H]1CCN1 [AZC, L-azetidine-2-carboxylic acid] | 44.2 ± 6.3 |
